The values that follow come from patent US20260041683A1, “Compounds with Anti-Acinetobacter Baumannii Activity” (University of Kentucky Research Foundation, priority 2022, published 2026).

≈ marks a conversion by molar mass, not a printed value. Entries after “also recorded” stand apart in the source; their conditions may differ. Where two headings read alike, the source gives them in different places.

In data set [1] the test system is B. anthracis Sterne F32. Briefly: microbe, parasite or virus in culture. Format: cell-based. Conditions: Bacillus anthracis.
For data set [2], the system named is S. aureus ATCC 25923. Briefly: MIC determination. Format: cell-based. Conditions: Staphylococcus aureus, ATCC25923.
In data set [3] the test system is Ab ATCC 19606. Briefly: Development of resistance, 15-passage MIC assay. Conditions: 15 passages at ½×MIC. Format: cell-based, Acinetobacter baumannii.
Data set [4] concerns preformed biofilm of Ab ATCC 19606. Kind of data set: Biofilm disruption assay (crystal violet). To be noted: compound added after formation of biofilm.
The test system of data set [5] is S. enterica ATCC 14028. Briefly: MIC determination. In kind it is cell-based. Conditions: Salmonella enterica, ATCC14028.
Data set [6] deals with S. epidermidis ATCC 12228. Briefly: MIC determination. In kind it is cell-based. Conditions: Staphylococcus epidermidis, ATCC12228.
Data set [7] concerns human embryonic kidney cells (HEK-293). Briefly: Mammalian cytotoxicity assay (resazurin). Conditions: HEK-293, 32 μg/mL (printed 32 g/mL for 3e), 24 h. (In general: The colour change of resazurin is a common sign of viable cells or microbes.)
The test system of data set [8] is M. smegmatis. Kind of data set: MIC determination. To be noted: Mycolicibacterium smegmatis; Table 4. Format: cell-based, Mycobacterium smegmatis.
The subject of data set [9] is K. pneumoniae ATCC 27736. Briefly: MIC determination. Format: cell-based. Conditions: Klebsiella pneumoniae, ATCC27736; Table 5; Mueller-Hinton medium; F = K. pneumoniae ATCC 27736; read-out: MIC strain F.
In data set [10] the test system is E. cloacae ATCC 13047. Briefly: MIC determination. In kind it is cell-based. To be noted: Enterobacter cloacae, ATCC13047.
The test system of data set [11] is biofilm formed by Ab ATCC 19606. Briefly: Biofilm prevention assay (crystal violet). To be noted: compound added while biofilm is forming.
Data set [12] concerns Y. pestis CO92. Briefly: microbe, parasite or virus in culture. To be noted: Yersinia pestis, CO92, read-out: MIC Y. pestis CO92. Format: cell-based.
The test system of data set [13] is E. coli MC1061. Briefly: MIC determination. In kind it is cell-based. Conditions: Escherichia coli; Table 5; Mueller-Hinton medium; D = E. coli MC1061; read-out: MIC strain D.
The subject of data set [14] is Ab ATCC 19606. Kind of data set: Time-kill curves. To be noted: 1×MIC and 4×MIC, up to 24 h.
Data set [15] relates to P. aeruginosa ATCC 27853. Kind of data set: MIC determination. In kind it is cell-based. To be noted: Pseudomonas aeruginosa, ATCC27853; Table 5; Mueller-Hinton medium; G = P. aeruginosa ATCC 27853; read-out: MIC strain G.

As for `O=C(NNc1ccc(Cl)cc1)c1ccc(F)cn1` [Compound 3e], the MIC in data set [1] (STERNEF32, read-out: MIC B. anthracis Sterne F32) is over 16 µg/mL; in data set [1] (STERNEF32, read-out: MIC strain A), over 64 µg/mL; in data set [2] (Table 4, read-out: MIC S. Aureus ATCC 25923), over 16 µg/mL; in data set [2] (Table 5, Mueller-Hinton medium, B = S. aureus ATCC 25923, read-out: MIC strain B), over 64 µg/mL; in data set [5] (Table 4, read-out: MIC S. enterica ATCC 14028), 8 µg/mL (≈ 30.1 µM); in data set [5] (Table 5, Mueller-Hinton medium, H = S. enterica ATCC 14028, read-out: MIC strain H), 64 µg/mL (≈ 241 µM). In addition, the MIC in data set [6] (Table 4, read-out: MIC S. epidermidis ATCC 12228) was over 16 µg/mL; in data set [6] (Table 5, Mueller-Hinton medium, C = S. epidermidis ATCC 12228, read-out: MIC strain C) it was over 64 µg/mL; in [8], 4 µg/mL (≈ 15.1 µM); in data set [9], 64 µg/mL (≈ 241 µM); in data set [10] (Table 4, read-out: MIC E. cloacae ATCC 13047), 4 µg/mL (≈ 15.1 µM); in data set [10] (Table 5, Mueller-Hinton medium, E = E. cloacae ATCC 13047, read-out: MIC strain E), 16 µg/mL (≈ 60.2 µM). Besides, the results for the MIC in data set [12], in [13] and in data set [15] were 8 µg/mL (≈ 30.1 µM), 16 µg/mL (≈ 60.2 µM) and over 64 µg/mL, respectively. Further, in [3], the “emergence of resistance (in words)” value was “not observed even after 15 passages; also recorded: Lack of resistance”. Besides, the “effect on preformed biofilm (disruption)” value in data set [4] is recorded as “did not disrupt a preformed Ab biofilm; also recorded: did not disrupt the preformed biofilm”. Moreover, the inhibition of growth (usually the drop in the measured response relative to a control, in per cent) in [7] came to 17%. The “effect on biofilm formation (prevention)” value in data set [11] was “biofilm formation was abolished at concentrations above MIC; also recorded: inhibited biofilm formation”. In addition, the “bacteriostatic or bactericidal (time-kill)” value in [14] is “bacteriostatic”.
